Measurements published in patent publication US20230107216A1, “PANTETHEINE DERIVATIVES AND USES THEREOF” (Comet Therapeutics, Inc., priority 2018, published 2023).
Like-named read-outs stand apart in the source and are kept apart here.

Experiments:
[1] = system: Dermal fibroblasts (HDF3CGF system); assay: BioMAP HDF3CGF system (IL-1β, TNFα, IFNγ, EGF, bFGF, PDGF-BB); assay type: cell-based, human; settings: for activation at 10 µM: 72 h, read-out: % increase in 72 Hour Proliferation
[2] = system: Peripheral blood mononuclear cells co-cultured with B-cells (BT system)
[3] = system: Bronchial epithelial cells (BE3C system); assay: BioMAP BE3C system (IL-1β, TNFα, IFNγ); assay type: cell-based, human; settings: procedure of Example 831
[4] = system: Peripheral blood mononuclear cells co-cultured with venular endothelial cells (HUVEC) (LPS system); assay: BioMAP LPS system; assay type: cell-based, human; settings: procedure of Example 827
[5] = system: tyrosine hydroxylase positive mesencephalic neurons injured by MPP+; assay: Neuroprotective effect on damage induced by MPP+ on culture of mesencephalic neurons; assay type: cell-based; settings: Rattus norvegicus, Neuron, MPP+ 50 μM, 48h, read-out: % reversion of TH positive neurons (MPTP-mediated degradation of dopaminergic neurons)
Text: A female Wistar rat (Janvier; France) of 15 days gestation was terminated by cervical dislocation, the fetuses were removed from the uterus and their brains were harvested and placed in ice-cold medium (Leibovitz's L15 medium, Gibco). Only ventral mesencephalic flexure was used for the cell preparations. The midbrain was dissociated by trypsinization. The reaction was stopped, and the suspension was triturated and centrifuged. The pellet of dissociated cells was resuspended in chemically defined medium consisted of Neurobasal (Gibco), containing B27 supplement (Gibco) and L-glutamine (Gibco), 10 ng/ml (BDNF; Pepro Tech, France) and 1 ng/ml (GDNF; Pepro Tech).
Viable primary rat embryo mesencephalic cells were counted and seeded on 96-multi-wells plate precoated with poly-L-lysine. Cells were maintained in a humidified incubator at 37° C. in 5% CO2-95% air atmosphere and medium changed on day 2. On day 6, the culture medium was removed and replaced by new media without neurotrophic factors containing the compounds of the present disclosure (50-10 μM) or vehicle (0.1% DMSO). After 1h exposure, injury of mesencephalon neuronal cultures was induced by MPP^+ (50 μM) for further 48h. A mixture of the growth factors GDNF (1 ng/ml) and BDNF (10 ng/ml) were used as reference compound. On day 8, the tyrosine hydroxylase positive neurons were evaluated. Cultures were fixed 30 min at 4° C. with paraformaldehyde in PBS (4%, Thermo Scientific, 28908). After, cells were permeabilized with 0.1% Triton X100 for 30 min, saturated with PBS containing 3% of BSA (bovine serum albumin) and incubated 2h with anti-tyrosine hydroxylase antibody (Sigma, 1:10000; clone TH-2) at 1/10000 in PBS containing 0.5% of BSA. Cells were washed three times with PBS containing 0.5% of BSA and incubated 1h with goat anti mouse antibody coupled with AF488 (Invitrogen A11001) diluted at 1/1000 in PBS containing 0.5% of BSA. Finally, nuclei were stained with DAPI at 1/1000 in PBS containing 0.5% of BSA. After rinsing with PBS, the plate was visualized and examined with Cell Insight HCS (Thermo Scientific) to determine the number of tyrosine hydroxylase positive cells per well.
The results for each well were expressed as a percentage by setting the density of tyrosine hydroxylase positive cells under control conditions to 100%. Then the result for each condition was reported as mean±SEM from 4 independent cultures.
A global analysis of the data was performed using a one-way analysis of variance (ANOVA), followed by Fisher's Protected Least Significant Difference when applicable. The level of significance was set to p<0.05.

[6] = Homo sapiens, Fibroblast, 10 uM
[7] = 10 uM, procedure of Example 829
[8] = Homo sapiens, Epithelial cell, 24 h, 10 uM, read-out: % decrease in MMP-1
[9] = Homo sapiens, HUVEC, 24 h, 1 uM, read-out: % decrease in IL-8
[10] = Homo sapiens, HUVEC, 24 h, 10 uM, read-out: % decrease in TissueFactor
[11] = Homo sapiens, HUVEC, 24 h, 10 uM, read-out: % decrease in sPGE2
[12] = Homo sapiens, Fibroblast, 24 h, 10 uM, read-out: % decrease in Collagen III
[13] = Homo sapiens, HUVEC, 24 h, 1 uM, read-out: % decrease in IL-1α
[14] = Homo sapiens, HUVEC, 24 h, 10 uM, read-out: % decrease in IL-8
[15] = Homo sapiens, HUVEC, 24 h, 10 uM, read-out: % increase in sTNFα
[16] = 10 uM, procedure of Example 833
[17] = Homo sapiens, HUVEC, 24 h, 1 uM, read-out: % decrease in sPGE2
[18] = Homo sapiens, HUVEC, 24 h, 10 uM, read-out: % decrease in IL-1α

CC(=O)OCC(C)(C)[C@@H](OC(C)=O)C(=O)NCCC(=O)NCCSC(C)=O [Compound 1264, (1R)-3-(acetyloxy)-1-[(2-[[2-(acetylsulfanyl)ethyl]carbamoyl]ethyl)carbamoyl]-2,2-dimethylpropyl acetate]
% increase in PAI-I ([1]; 1 uM): ≥10%
% increase in TIMP-2 ([1]; 10 uM): ≥10%
activation at 10 µM [1, 6]: ≥ 10%
% decrease in sTNFα [2, 7]: ≥10%
% increase in B-cell Proliferation [2, 7]: ≥10%
% decrease in tPA ([3]; 10 uM): ≥10%
inhibition at 10 µM [3, 8]: ≥ 10%

COC(=O)CCC(=O)SCCNC(=O)CCNC(=O)[C@H](OC(=O)CN)C(C)(C)CO [Compound 1294, methyl 4-[(2-[3-[(2R)-2-[(2-aminoacetyl)oxy]-4-hydroxy-3,3-dimethylbutanamido]propanamido]ethyl)sulfanyl]-4-oxobutanoate]
inhibition at 1 µM ([1]; Homo sapiens, Fibroblast, 24 h, 1 uM, read-out: % decrease in Collagen III): ≥ 10%
activation at 10 µM [1, 6]: ≥ 20%
inhibition at 1 µM [4, 9]: ≥ 10%
activation at 1 µM ([4]; Homo sapiens, HUVEC, 24 h, 1 uM, read-out: % increase in sTNFα): ≥ 10%
inhibition at 10 µM [4, 10]: ≥ 10%
inhibition at 10 µM [4, 11]: ≥ 10%
% increase in B-cell Proliferation ([2]; 1 uM, procedure of Example 829): ≥10%
% decrease in sIL-2 [2, 7]: ≥10%
inhibition at 1 µM ([3]; Homo sapiens, Epithelial cell, 24 h, 1 uM, read-out: % decrease in MMP-1): ≥ 10%

CCCCCCC(=O)SCCNC(=O)CCNC(=O)[C@H](O)C(C)(C)CO [Compound 372, (2R)—N-(2-[[2-(heptanoylsulfanyl)ethyl]carbamoyl]ethyl)-2,4-dihydroxy-3,3-dimethylbutanamide]
% increase in PAI-I ([1]; 10 uM): ≥10%
inhibition at 10 µM [1, 12]: ≥ 10%
inhibition at 1 µM [4, 13]: ≥ 10%
inhibition at 10 µM [4, 14]: ≥ 20%
inhibition at 10 µM [4, 10]: ≥ 10%
activation at 10 µM [4, 15]: ≥ 10%
% increase in sIL-2 ([2]; 1 uM, procedure of Example 829): ≥10%
% increase in sIL-17 [2, 7]: ≥20%
inhibition at 10 µM [3, 8]: ≥ 10%

CC(C)(CO)[C@@H](O)C(=O)NCCC(=O)NCCSC(=O)[C@@H](N)Cc1ccc(O)c(O)c1 [Compound 371, (2R)—N-[2-[(2-[[(2S)-2-amino-3-(3,4-dihydroxyphenyl)propanoyl]sulfanyl]ethyl)carbamoyl]ethyl]-2,4-dihydroxy-3,3-dimethylbutanamide]
% increase in PAI-I ([1]; 10 uM): ≥10%
% decrease in Collagen I [1, 16]: ≥10%
inhibition at 10 µM [1, 12]: ≥ 10%
inhibition at 10 µM [5]: ≥ 60%
% decrease in sTNFα ([4]; 10 uM): ≥10%
inhibition at 1 µM [4, 13]: ≥ 10%
inhibition at 10 µM [4, 14]: ≥ 10%
inhibition at 10 µM [4, 11]: ≥ 10%
% increase in sIL-2 ([2]; 1 uM, procedure of Example 829): ≥20%
% increase in PBMC cytotoxicity ([2]; human, 72 h, 10 µM): ≥10%

COC(=O)CCC(=O)SCCNC(=O)CCNC(=O)[C@H](OC(=O)CNC(C)=O)C(C)(C)CO [Compound 1298, methyl 4-[(2-[3-[(2R)-2-[(2-acetamidoacetyl)oxy]-4-hydroxy-3,3-dimethylbutanamido]propanamido]ethyl)sulfanyl]-4-oxobutanoate]
% decrease in TIMP-1 ([1]; 1 uM): ≥10%
% decrease in TIMP-2 ([1]; 1 uM): ≥10%
% decrease in M-CSF ([4]; 1 uM): ≥20%
% decrease in sTNFα ([4]; 1 uM): ≥10%
% decrease in Thrombomodulin ([4]; 10 uM): ≥10%
inhibition at 1 µM [4, 9]: ≥ 10%
inhibition at 1 µM [4, 17]: ≥ 20%
inhibition at 10 µM [4, 18]: ≥ 10%
inhibition at 10 µM [4, 10]: ≥ 10%
activation at 10 µM [4, 15]: ≥ 10%
% increase in B-cell Proliferation ([2]; 1 uM, procedure of Example 829): ≥10%
% increase in sIL-17 ([2]; 1 uM, procedure of Example 829): ≥20%
% decrease in sTNFα [2, 7]: ≥10%
inhibition at 10 µM [3, 8]: ≥ 10%

COC(=O)CCC(=O)SCCNC(=O)CCNC(=O)[C@H](O)C(C)(C)COC(C)=O [Compound 138]
% decrease in Collagen I ([1]; 1 uM, procedure of Example 833): ≥10%
% increase in Tissue Factor ([4]; 1 uM): ≥10%
inhibition at 1 µM [4, 17]: ≥ 10%
% decrease in sIL-2 ([2]; 1 uM, procedure of Example 829): ≥10%
% decrease in sTNFα ([2]; 1 uM, procedure of Example 829): ≥20%
% increase in MMP-9 ([3]; 1 uM): ≥10%

CC(=O)SCCNC(=O)CCNC(=O)[C@H](O)C(C)(C)COC(=O)[C@H](C)N [Compound 502, (3R)-3-[(2-[[2-(acetylsulfanyl)ethyl]carbamoyl]ethyl)carbamoyl]-3-hydroxy-2,2-dimethylpropyl (2S)-2-aminopropanoate]
% increase in SRB ([1]; 1 uM): ≥10%
inhibition at 10 µM [4, 14]: ≥ 10%
inhibition at 10 µM [4, 10]: ≥ 10%
inhibition at 10 µM [4, 11]: ≥ 10%
% decrease in IL-1α ([3]; 1 uM): ≥10%

C[C@@H](O)CC(=O)CC(=O)SCCNC(=O)CCNC(=O)[C@H](O)C(C)(C)CO [Compound 42, (2R)-2,4-dihydroxy-N-[2-[(2-[[(5R)-5-hydroxy-3-oxohexanoyl]sulfanyl]ethyl)carbamoyl]ethyl]-3,3-dimethylbutanamide]
inhibition at 10 µM [5]: ≥ 60%
% decrease in Thrombomodulin ([4]; 10 uM): ≥10%
inhibition at 10 µM [4, 10]: ≥ 10%
activation at 10 µM [4, 15]: ≥ 10%
% increase in sIL-2 [2, 7]: ≥10%
% increase in sTNFα [2, 7]: ≥10%
% decrease in Keratin 8/18 ([3]; 10 uM): ≥1.0%
% decrease in MMP-9 ([3]; 10 uM): ≥10%
% decrease in tPA ([3]; 10 uM): ≥10%

C[C@@H](O)CC(=O)SCCNC(=O)CCNC(=O)[C@H](O)C(C)(C)CO [Compound 38, S-2-{3-[(R)-2,4-dihydroxy-3,3-dimethylbutyrylamino]propionylamino} ethyl (R)-3-hydroxybutanethioate]
inhibition at 10 µM [5]: ≥ 60%

COC(=O)CC(SCCNC(=O)CCNC(=O)[C@H](O)C(C)(C)COC(C)=O)C(=O)OC (stereo partly drawn) [Compound 149, 1,4-dimethyl 2-[(2-[3-[(2R)-4-(acetyloxy)-2-hydroxy-3,3-dimethylbutanamido]propanamido]ethyl)sulfanyl]butanedioate]
% increase in Collagen I ([1]; 1 uM, procedure of Example 833): ≥10%
% increase in Tissue Factor ([4]; 1 uM): ≥10%
% increase in IL-8 ([4]; 10 uM): ≥10%
inhibition at 10 µM [4, 18]: ≥ 10%
inhibition at 10 µM [4, 10]: ≥ 20%
inhibition at 10 µM [4, 11]: ≥ 10%
% increase in sIL-2 [2, 7]: ≥20%
% increase in sTNFα [2, 7]: ≥10%
% decrease in tPA ([3]; 10 uM): ≥10%

CC(C)(CO)[C@@H](O)C(=O)NCCC(=O)NCCSC(=O)CCC(=O)O [Compound 1, (R)-4-((2-(3-(2,4-dihydroxy-3,3-dimethylbutanamido)propanamido)ethyl)thio)-4-oxobutanoic acid]
inhibition at 10 µM [5]: ≥ 30%

CC(C)(COC(=O)OCC[N+](C)(C)C)[C@@H](O)C(=O)NCCC(=O)NCCSC(=O)CCC(=O)O [Compound 116, [2-([[(3R)-3-[[2-([2-[(3-carboxypropanoyl)sulfanyl]ethyl]carbamoyl)ethyl]carbamoyl]-3-hydroxy-2,2-dimethylpropoxy]carbonyl]oxy)ethyl]trimethylazanium]
% decrease in Collagen I [1, 16]: ≥10%
inhibition at 10 µM [5]: ≥ 30%
inhibition at 10 µM [4, 18]: ≥ 10%
% decrease in B-cell proliferation ([2]; 1 uM, procedure of Example 829): ≥10%
% decrease in sTNFα [2, 7]: ≥10%

CC(=O)SCCNC(=O)CCNC(=O)[C@H](O)C(C)(C)COC(=O)CN [Compound 560, (3R)-3-[(2-[[2-(acetylsulfanyl)ethyl]carbamoyl]ethyl)carbamoyl]-3-hydroxy-2,2-dimethylpropyl 2-aminoacetate]
inhibition at 10 µM [5]: ≥ 30%

COC(=O)CC(C(C)=O)C(=O)SCCNC(=O)CCNC(=O)[C@H](O)C(C)(C)CO (stereo partly shown) [Compound 410]
inhibition at 10 µM [5]: ≥ 60%

CC(=O)OCC(C)(C)[C@@H](O)C(=O)NCCC(=O)NCCSC(=O)CC(=O)CCC(=O)O [Compound 140, 6-[(2-[3-[(2R)-4-(acetyloxy)-2-hydroxy-3,3-dimethylbutanamido]propanamido]ethyl)sulfanyl]-4,6-dioxohexanoic acid]
inhibition at 10 µM [5]: ≥ 60%
